pIC50: −log10 of the molar value.
Biological target: T1, Seed linoleate 13S-lipoxygenase-1 (Glycine max, UniProt P08170)
T1 sequence (P08170 whole entry): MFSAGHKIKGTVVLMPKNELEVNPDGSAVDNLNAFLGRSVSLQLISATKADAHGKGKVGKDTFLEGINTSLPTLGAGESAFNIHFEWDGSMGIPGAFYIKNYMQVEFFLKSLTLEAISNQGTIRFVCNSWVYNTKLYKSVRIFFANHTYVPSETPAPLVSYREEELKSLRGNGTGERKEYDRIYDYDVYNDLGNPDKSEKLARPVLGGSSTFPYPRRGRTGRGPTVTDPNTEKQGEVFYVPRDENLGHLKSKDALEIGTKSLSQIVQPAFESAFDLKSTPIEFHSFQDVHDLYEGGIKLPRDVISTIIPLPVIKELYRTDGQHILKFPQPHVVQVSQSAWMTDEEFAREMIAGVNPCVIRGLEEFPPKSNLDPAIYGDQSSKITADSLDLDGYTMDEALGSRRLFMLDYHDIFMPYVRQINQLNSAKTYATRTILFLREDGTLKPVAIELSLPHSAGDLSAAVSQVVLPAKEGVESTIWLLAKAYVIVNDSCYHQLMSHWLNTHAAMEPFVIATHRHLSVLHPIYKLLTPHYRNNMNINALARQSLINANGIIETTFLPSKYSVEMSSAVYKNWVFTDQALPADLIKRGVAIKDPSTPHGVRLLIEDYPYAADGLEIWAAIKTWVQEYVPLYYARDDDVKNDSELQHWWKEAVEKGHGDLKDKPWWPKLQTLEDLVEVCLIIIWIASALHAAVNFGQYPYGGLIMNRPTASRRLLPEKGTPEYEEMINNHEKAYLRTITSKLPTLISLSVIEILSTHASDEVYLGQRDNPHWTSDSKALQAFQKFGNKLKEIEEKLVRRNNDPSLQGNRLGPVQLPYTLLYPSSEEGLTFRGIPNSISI
Test: LOX Activity Assay
Details: 25 °C
Protocol: Enzyme activity was monitored by UV analysis. 0.05 cm^3 of enzyme solution was added to a cuvette containing 2 cm^3 linoleic acid solution and the appropriate amounts of buffer and inhibitor solutions in thermostatic water bath at 25°C. There was no pre-incubation time of the enzyme with inhibitor solution. The activity of the enzyme was determined by monitoring the increase in the absorption caused by the oxidation of linoleic acid at 234 nm and 25°C (ε = 25 000 M^−1 cm^−1). One standard solution of complexes in DMSO (10^-2 M) was used for theinhibition activity experiments (three sets). In this case, the substrate concentration was kept constant (0.3 mM), while the amounts of buffer and inhibitor solutions varied according to the inhibitor final concentration needed(0.5-30 μM or 0.15-9 μL from standard solutions). The total experiment volume was 3 cm^3.

In order of falling pIC50:
1. [Cl][Au][PH](c1ccccc1)(c1ccccc1)c1ccccc1 [[Au(tpp)Cl] (1)]  5.92
2. Clc1ccc2sc([S][Au][PH](c3ccccc3)(c3ccccc3)c3ccccc3)nc2c1 [[Au(tpp)(Clmbzt)] (4)]  4.80
3. c1ccc([PH]([Au][S]C2=NCCS2)(c2ccccc2)c2ccccc2)cc1 [[Au(tpp)(mtzd)] (2)]  4.73
4. c1ccc([PH]([Au][S]c2nc3ccccc3s2)(c2ccccc2)c2ccccc2)cc1 [[Au(tpp)(mbzt)] (3)]  4.40
